Test results from ChEMBL document CHEMBL5500384, “New synergistic benzoquinone scaffolds as inhibitors of mycobacterial cytochrome bc1 complex to treat multi-drug resistant tuberculosis” (Eur J Med Chem, 2024).
Values after ≈ are worked out from the molar mass of the structure shown.

Columns and labels:
[1] = Renal toxicity in Albino mouse assessed as change in proximal convoluted tubules at 50 to 2000 mg/kg, po measured after 14 days; assay type: organism-based; settings: in vivo, 336 h, dose 50-2000 mg/kg, time 14 day
[2] = Acute toxicity in Albino mouse assessed as change in lymphocytes at 50 to 2000 mg/kg, po measured after 14 days (reference value: 21%); assay type: organism-based; settings: in vivo, 336 h, dose 50-2000 mg/kg, time 14 day
[3] = Hepatotoxicity in Albino mouse assessed as change in hepatic artery at 50 to 2000 mg/kg, po measured after 14 days; assay type: toxicity, organism-based, Liver; settings: in vivo, 336 h, dose 50-2000 mg/kg, time 14 day
[4] = Acute toxicity in po dosed Albino mouse assessed as mortality after 14 days; assay type: organism-based; settings: in vivo, time 14 day
[5] = Renal toxicity in Albino mouse assessed as change in distal convoluted tubules at 50 to 2000 mg/kg, po measured after 14 days; assay type: organism-based; settings: in vivo, 336 h, dose 50-2000 mg/kg, time 14 day
[6] = Hepatotoxicity in Albino mouse assessed as change in bile duct at 50 to 2000 mg/kg, po measured after 14 days; assay type: toxicity, organism-based, Liver; settings: in vivo, 336 h, dose 50-2000 mg/kg, time 14 day
[7] = Cytotoxicity against african green monkey Vero cells by MTT assay; assay type: toxicity, cell-based; settings: chlorocebus sabaeus
[8] = Hepatotoxicity in Albino mouse assessed as change in hepatocytes at 50 to 2000 mg/kg, po measured after 14 days; assay type: toxicity, organism-based; settings: in vivo, 336 h, dose 50-2000 mg/kg, time 14 day
[9] = Renal toxicity in Albino mouse assessed as change in renal corpuscles at 50 to 2000 mg/kg, po measured after 14 days; assay type: organism-based; settings: in vivo, 336 h, dose 50-2000 mg/kg, time 14 day
[10] = Renal toxicity in Albino mouse assessed as change in tubular capillaries at 50 to 2000 mg/kg, po measured after 14 days; assay type: organism-based; settings: in vivo, 336 h, dose 50-2000 mg/kg, time 14 day
[11] = Acute toxicity in Albino mouse assessed as change in SGPT count at 50 to 2000 mg/kg, po measured after 14 days (reference value: 52 IU/L); assay type: organism-based; settings: in vivo, 336 h, dose 50-2000 mg/kg, time 14 day
[12] = Acute toxicity in Albino mouse assessed as change in SGOT count at 50 to 2000 mg/kg, po measured after 14 days (reference value: 42 IU/L); assay type: organism-based; settings: in vivo, 336 h, dose 50-2000 mg/kg, time 14 day
[13] = Acute toxicity in Albino mouse assessed as change in monocytes at 50 to 2000 mg/kg, po measured after 14 days (reference value: 1%); assay type: organism-based; settings: in vivo, 336 h, dose 50-2000 mg/kg, time 14 day
[14] = Renal toxicity in Albino mouse assessed as change in renal tubules at 50 to 2000 mg/kg, po measured after 14 days; assay type: organism-based; settings: in vivo, 336 h, dose 50-2000 mg/kg, time 14 day
[15] = Hepatotoxicity in Albino mouse assessed as change in portal tracks at 50 to 2000 mg/kg, po measured after 14 days; assay type: toxicity, organism-based; settings: in vivo, 336 h, dose 50-2000 mg/kg, time 14 day
[16] = Cytotoxicity against african green monkey Vero cells assessed as cell viability at 50 ug/ml by MTT assay; assay type: toxicity, cell-based; settings: chlorocebus sabaeus, at 50 µg/mL, read-out: Activity
[17] = Acute toxicity in Albino mouse assessed as change in neutrophils at 50 to 2000 mg/kg, po measured after 14 days (reference value: 75%); assay type: organism-based; settings: in vivo, 336 h, dose 50-2000 mg/kg, time 14 day
[18] = Acute toxicity in Albino mouse assessed as mortality at 2000 mg/kg, po after 2 to 4 hrs; assay type: organism-based; settings: in vivo, time 2-4 hrs
[19] = Pulmonary toxicity in Albino mouse assessed as appearance of cilia at 50 to 2000 mg/kg, po measured after 14 days; assay type: organism-based; settings: in vivo, 336 h, dose 50-2000 mg/kg, time 14 day
[20] = Pulmonary toxicity in Albino mouse assessed as appearance of goblet cells at 50 to 2000 mg/kg, po measured after 14 days; assay type: organism-based; settings: in vivo, 336 h, dose 50-2000 mg/kg, time 14 day
[21] = Cytotoxicity against african green monkey Vero cells assessed as cell viability at 12.5 ug/ml by MTT assay; assay type: toxicity, cell-based; settings: chlorocebus sabaeus, at 12.5 µg/mL, read-out: Activity
[22] = Pulmonary toxicity in Albino mouse assessed as change in alveolar sacs at 50 to 2000 mg/kg, po measured after 14 days; assay type: organism-based; settings: in vivo, 336 h, dose 50-2000 mg/kg, time 14 day
[23] = Acute toxicity in Albino mouse assessed as change in RBC count measured per million cells at 50 to 2000 mg/kg, po measured after 14 days (reference value: 9.15 microL); assay type: organism-based, Erythrocyte; settings: in vivo, 336 h, dose 50-2000 mg/kg, time 14 day
[24] = Acute toxicity in Albino mouse assessed as mortality at 300 mg/kg, po after 14 days; assay type: organism-based; settings: in vivo, 336 h, time 14 day
[25] = Acute toxicity in Albino mouse assessed as change in serum urea level at 50 to 2000 mg/kg, po measured after 14 days (reference value: 46 mg/dl); assay type: organism-based; settings: in vivo, 336 h, dose 50-2000 mg/kg, time 14 day
[26] = Pulmonary toxicity in Albino mouse assessed as change in bronchi structure at 50 to 2000 mg/kg, po measured after 14 days; assay type: organism-based; settings: in vivo, 336 h, dose 50-2000 mg/kg, time 14 day
[27] = Renal toxicity in Albino mouse assessed as structural absorbability abnormalities at 50 to 2000 mg/kg, po measured after 14 days; assay type: organism-based; settings: in vivo, 336 h, dose 50-2000 mg/kg, time 14 day
[28] = test system: Mycobacterium tuberculosis; experiment: Antitubercular activity against Mycobacterium tuberculosis H37Rv incubated for 5 days by microtiter plate method; assay type: functional; settings: 120 h, time 5 day
[29] = Acute toxicity in Albino mouse assessed as change in eosinophils at 50 to 2000 mg/kg, po measured after 14 days (reference value: 3%); assay type: organism-based; settings: in vivo, 336 h, dose 50-2000 mg/kg, time 14 day
[30] = Hepatotoxicity in Albino mouse assessed as change in central vein at 50 to 2000 mg/kg, po measured after 14 days; assay type: toxicity, organism-based; settings: in vivo, 336 h, dose 50-2000 mg/kg, time 14 day
[31] = Cytotoxicity against african green monkey Vero cells assessed as cell viability at 6.25 ug/ml by MTT assay; assay type: toxicity, cell-based; settings: chlorocebus sabaeus, at 6.25 µg/mL, read-out: Activity
[32] = Acute toxicity in Albino mouse assessed as change in platelet count at 50 to 2000 mg/kg, po measured after 14 days (reference value: 3.24 mm3); assay type: organism-based; set-up: unit not given here; settings: in vivo, 336 h, dose 50-2000 mg/kg, time 14 day
[33] = Pulmonary toxicity in Albino mouse assessed as change in squamous pneumocytes at 50 to 2000 mg/kg, po measured after 14 days; assay type: organism-based; settings: in vivo, 336 h, dose 50-2000 mg/kg, time 14 day
[34] = Pulmonary toxicity in Albino mouse assessed as change in alveoli structure at 50 to 2000 mg/kg, po measured after 14 days; assay type: organism-based; settings: in vivo, 336 h, dose 50-2000 mg/kg, time 14 day
[35] = Acute toxicity in Albino mouse assessed as change in total leucocyte count at 50 to 2000 mg/kg, po measured after 14 days (reference value: 7400 mm3); assay type: organism-based; settings: in vivo, 336 h, dose 50-2000 mg/kg, time 14 day
[36] = Renal toxicity in Albino mouse assessed as extravasation of RBC at 50 to 2000 mg/kg, po measured after 14 days; assay type: organism-based, Erythrocyte; settings: in vivo, 336 h, dose 50-2000 mg/kg, time 14 day
[37] = Renal toxicity in Albino mouse assessed as change in Bowman's capsule at 50 to 2000 mg/kg, po measured after 14 days; assay type: organism-based; settings: in vivo, 336 h, dose 50-2000 mg/kg, time 14 day
[38] = Acute toxicity in Albino mouse assessed as change in ALP level at 50 to 2000 mg/kg, po measured after 14 days (reference value: 28 IU/L); assay type: organism-based; settings: in vivo, 336 h, dose 50-2000 mg/kg, time 14 day
[39] = Hepatotoxicity in Albino mouse assessed as change in portal vein at 50 to 2000 mg/kg, po measured after 14 days; assay type: toxicity, organism-based; settings: in vivo, 336 h, dose 50-2000 mg/kg, time 14 day
[40] = Acute toxicity in Albino mouse assessed as change in serum creatine level at 50 to 2000 mg/kg, po measured after 14 days (reference value: 0.9 mg/dl); assay type: organism-based; settings: in vivo, 336 h, dose 50-2000 mg/kg, time 14 day
[41] = Acute toxicity in Albino mouse assessed as change in ESR at 50 to 2000 mg/kg, po measured after 14 days (reference value: 10 millimeter); assay type: organism-based; settings: in vivo, 336 h, dose 50-2000 mg/kg, time 14 day
[42] = Acute toxicity in Albino mouse assessed as change in hemoglobin level at 50 to 2000 mg/kg, po measured after 14 days (reference value: 12.8 g/dl); assay type: organism-based; settings: in vivo, 336 h, dose 50-2000 mg/kg, time 14 day
[43] = Cytotoxicity against african green monkey Vero cells assessed as cell viability at 25 ug/ml by MTT assay; assay type: toxicity, cell-based; settings: chlorocebus sabaeus, at 25 µg/mL, read-out: Activity
[44] = Cytotoxicity against african green monkey Vero cells assessed as cell viability at 3.125 ug/ml by MTT assay; assay type: toxicity, cell-based; settings: chlorocebus sabaeus, at 3.125 µg/mL, read-out: Activity
[45] = Acute toxicity in Albino mouse assessed as change in LDH level at 50 to 2000 mg/kg, po measured after 14 days (reference value: 1052 IU/L); assay type: organism-based; settings: in vivo, 336 h, dose 50-2000 mg/kg, time 14 day
[46] = Cytotoxicity against african green monkey Vero cells assessed as cell viability at 100 ug/ml by MTT assay; assay type: toxicity, cell-based; settings: chlorocebus sabaeus, at 100 µg/mL, read-out: Activity

CCOc1cc(C2C(Cl)C(=O)N2C2=C(Cl)C(=O)c3ccccc3C2=O)ccc1O (stereo unspecified)
Activity [1]: Non-Toxic | Activity [2]: 34% | Activity [3]: Non-Toxic | LD50 at 336 h [4]: 300 mg/kg | Activity [5]: Non-Toxic | Activity [6]: Non-Toxic | Activity [7]: Dose-Dependent Effect | Activity [8]: Non-Toxic | Activity [9]: Non-Toxic | Activity [10]: Non-Toxic | Activity [11]: 75.33 IU/L | Activity [12]: 168.67 IU/L | Activity [13]: 1% | Activity [14]: Non-Toxic | Activity [15]: Non-Toxic | viability at 50 ug/ml [16]: 30.6% | Activity [17]: 66% | Activity [18]: Toxic | Activity [19]: Non-Toxic | Activity [20]: Non-Toxic | viability at 12.5 ug/ml [21]: 100% | Activity [22]: Non-Toxic | Activity [23]: 8.95 | Activity [24]: Non-Toxic | Activity [25]: 35.72 mg/dL | Activity [26]: Non-Toxic | Activity [27]: Non-Toxic | MIC [28]: 14.5 µM (≈ 6.25 µg/mL) | Activity [29]: 3% | Activity [30]: Non-Toxic | viability at 6.25 ug/ml [31]: 100% | Activity [32]: 4.9 | Activity [33]: Non-Toxic | Activity [34]: Non-Toxic | Activity [35]: 8200 mm3 | Activity [36]: Non-Toxic | Activity [37]: Non-Toxic | Activity [38]: 832.75 IU/L | Activity [39]: Non-Toxic | Activity [40]: < 0.3 mg/dL | Activity [41]: 11 millimeter/hr | Activity [42]: 12.5 g/dL | viability at 25 ug/ml [43]: 67.8% | viability at 3.125 ug/ml [44]: 100% | Activity [45]: 470.21 IU/L | viability at 100 ug/ml [46]: 10.4%
